Test results: the NIST ThermoML archive (doi:10.1021/je0202174)
± gives the expanded uncertainty stated by the source.

Settings: Liquid

viscosity (253.15 K) [mPa·s] | viscosity (258.15 K) [mPa·s] | viscosity (263.15 K) [mPa·s] | viscosity (268.15 K) [mPa·s] | viscosity (273.15 K) [mPa·s] | viscosity (278.15 K) [mPa·s] | viscosity (283.15 K) [mPa·s] | viscosity (288.15 K) [mPa·s] | viscosity (293.15 K) [mPa·s] | viscosity (298.15 K) [mPa·s] | viscosity (303.15 K) [mPa·s] | viscosity (308.15 K) [mPa·s] | viscosity (313.15 K) [mPa·s] | viscosity (318.15 K) [mPa·s] | viscosity (323.15 K) [mPa·s] | viscosity (328.15 K) [mPa·s] | viscosity (333.15 K) [mPa·s] | viscosity (338.15 K) [mPa·s] | viscosity (343.15 K) [mPa·s] | viscosity (348.15 K) [mPa·s] | further results | Compound
0.3893 ± 0.0075 | 0.3661 ± 0.0072 | 0.3439 ± 0.0069 | 0.3201 ± 0.0065 | 0.3023 ± 0.0063 | 0.2859 ± 0.0061 | 0.2703 ± 0.0058 | 0.2547 ± 0.0056 | 0.2399 ± 0.0054 | 0.2289 ± 0.0052 | 0.2144 ± 0.005 | 0.2023 ± 0.0049 | 0.191 ± 0.0047 | 0.1813 ± 0.0046 | 0.1724 ± 0.0044 | 0.1611 ± 0.0043 | 0.1543 ± 0.0042 | 0.148 ± 0.0041 | 0.1411 ± 0.004 | 0.1332 ± 0.0039 | viscosity (353.15 K): 0.1287 ± 0.0038 mPa·s | CCC(C)C [2-methylbutane]
0.7268 ± 0.012 | 0.6786 ± 0.011 | 0.6347 ± 0.011 | 0.593 ± 0.01 | 0.5567 ± 0.0098 | 0.5224 ± 0.0093 | 0.4922 ± 0.0089 | 0.4646 ± 0.0085 | 0.4382 ± 0.0081 | 0.4148 ± 0.0078 | 0.3923 ± 0.0075 | 0.3714 ± 0.0072 | 0.3521 ± 0.0069 | 0.335 ± 0.0067 | 0.319 ± 0.0065 | 0.3048 ± 0.0063 | 0.2912 ± 0.0061 | 0.2793 ± 0.0059 | 0.269 ± 0.0058 | 0.259 ± 0.0056 | viscosity (353.15 K): 0.2502 ± 0.0055 mPa·s | C1CCCC1 [cyclopentane]
